Values of other authors, collected in patent US20260285919A1, “RECOMBINANT PEPTIDES AND COMPOSITIONS THEREOF FOR PAIN MANAGEMENT” (UNIVERSITY OF ROCHESTER, priority 2023, published 2026).

Legend:
mice = details: for pain responses in injected paws: injected into the paws of mice
human ASIC1b = human ASIC1b protein, as opposed to rodent ASIC1b

Substance | pain responses in injected paws (mice) | analgesic effect in mice where ASIC1a is genetically deleted (mice; ASIC1a genetically deleted mice, ASIC1b present) | effect on the activity of human ASIC1b (human ASIC1b)
PcTx1 (EDCIPKWKGCVNRHGDCCEGLECWKRRRSFEVCVPKTPKT; UniProt P60514 1-40, looked up) | this effect is not seen |  | 
mambalgin | much less sensitive | still works | increases the activity of human ASIC1b
